These are literature values, as cited in patent publication US5500226A, “Pharmaceutical composition having analgesic activity” (Zambon Group S.p.A., priority 1993, dated 1996).

The conditions of the series: in words; vs Ibuprofen.

Turning to `CC(C)Cc1ccc([C@H](C)C(=O)O)cc1` [(S)-Ibuprofen, S(+)-2-(4-isobutylphenyl)propionic acid], the Analgesic effect entry is “more rapid, and consequently a more lasting, analgesic effect than Ibuprofen”.
